According to patent publication US12128041B2, “Nanoparticles for delivering drug, whose surface is modified with peptide for targeting brain cancer, preparation method thereof and use thereof” (UNIVERSITY-INDUSTRY COOPERATION GROUP OF KYUNG HEE …, priority 2020, dated 2024):
Where two headings read alike, the source gives them in different places. Where a SMILES comes first, the peptide text is derived from it.

How the values were obtained:
U87MG cells [1] = experiment: Cytotoxicity in U87MG cells, WST-1 cell viability; assay type: cell-based, human; details: 6 hours
Description: (§1) The present inventor conducted the following experiments to confirm the intracellular uptake efficiency and cytotoxicity of SIWV-pSiNP(SN-38). Specifically, U87MG cells were seeded into 96-well plates at a density of 10,000 cells/well and cultured under the conditions of 5% CO2 and 37° C. for 24 hours. Thereafter, the cells were treated with 100 μL of each of the SN-38 drug alone, pSiNPs, pSiNP(SN-38) and SIWV-pSiNP(SN-38) nanoparticles at a concentration of 6.25, 12.5, 25, 50, and 100 μM, respectively, and cultured for 6 hours. After 6 hours, in order to confirm the intracellular uptake efficiency, cell nuclei were stained by treating the cells with a 4′,6-diamino-2-phenylindole (DAPI) reagent for 10 minutes, and cell membranes were then stained by treating the cells with a CellMask™ Deep Red Plasma membrane stain reagent for 1 hour. After staining, the cells were washed three times with PBS and treated with 4% paraformaldehyde for 20 minutes to fix the cells, and then the cells were observed under a confocal microscope.
Meanwhile, after the cells were treated with SN-38 and each of the nanoparticles as described above and cultured for 6 hours, 10 μL of a 10% WST-1 reagent was added to each well and the cells were cultured for 2 hours. Thereafter, cell viability was analyzed by measuring the absorbance at 450 nm using a microplate reader, and the cell viability was analyzed using a relative percentage for U87MG cells not treated with nanoparticles.

U87MG cells [2] = experiment: Intracellular uptake in U87MG cells by confocal microscope; assay type: cell-based, human; details: cultured for 6 hours
Description: as §1

[3] = In vivo distribution of TAMRA-labeled SIWV peptide in healthy mice by fluorescence signal; details: tail vein injection
[4] = Passage through the blood-brain barrier, confocal microscopy of brain tissue sections; assay type: in vivo, mice; details: brain removed 3 hours after tail vein injection of SIWV-TAMRA
[5] = mouse, in vivo

In the case of `CCc1c2c(nc3ccc(O)cc13)-c1cc3c(c(=O)n1C2)COC(=O)[C@]3(O)CC` [SN-38, 7-ethyl-10-hydroxy-camptothecin], the “cytotoxicity (toxicity of U87MG cells)” value (U87MG cells [1]; 6.5 μM) is reported as 12.4%, the cytotoxicity (U87MG cells [1]; 100 μM) is reported as 55.4% and the “concentration dependence of toxicity” value (U87MG cells [1]; U87MG cells, 6.25 to 100 μM) is reported as “increased toxicity as the treatment concentration was increased”. For the same molecule, the intracellular uptake (U87MG cells [2]) was “intracellular uptake did not occur”.

For `CN(C)c1ccc2c(-c3ccccc3C(=O)[O-])c3ccc(N(C)C)cc3[o+]c2c1` [TAMRA, tetramethylrhodamine], the “time of excretion from the body” value [3] was ≤ 2 h.

For `CC[C@H](C)[C@H](NC(=O)[C@@H](N)CO)C(=O)N[C@@H](Cc1c[nH]c2ccccc12)C(=O)N[C@H](C(=O)O)C(C)C` [SIWV peptide] (H-SIWV-OH; N-terminus and C-terminus assumed), the “passage through the blood-brain barrier” value [4] was “passed through the blood-brain barrier” and the “time of excretion from the body” value [5] was 24 h.
